Results as given in paper PMC6150295, “Synthesis and Biological Evaluation of 2H-Indazole Derivatives: Towards Antimicrobial and Anti-Inflammatory Dual Agents” (Molecules : A Journal of Synthetic Chemistry and Natural …, 2017).
Read-outs that look alike come from different tables or passages of the source.

Tests used:
[1] = test system: Entamoeba histolytica strain HM1-IMSS; assay: In vitro antiprotozoal assay (trophozoite subculture method); format: cell-based; settings: for IC50: Entamoeba histolytica, read-out: IC50 (µM) E. histolytica; for improvement in potency against E. histolytica relative to the analog: 17 compared with 8, 20 compared to 13, 26 compared to 21
Description: (§1) The in vitro antiprotozoal assays against E. histolytica, G. intestinalis, and T. vaginalis of the 2-phenyl-2H-indazole and 2,3-diphenyl-2H-indazole derivatives were carried out following the method previously described. Metronidazole (MTZ) and albendazole (ABZ) were used as reference drugs. […] Similarly, compound 7, having a phenyl at position 2, has good activity against the three protozoa, ranking third in activity for T. vaginalis and forth against G. intestinalis and E. histolytica. […] These derivatives had groups H, COOCH3, Cl, and SO2CH3 at positions 2 and 3, substituents that induced the best response in 2-phenyl-2H-indazole derivatives. In addition, carboxylic acids 20 and 25 were of interest for comparative purposes with ester derivatives.
(§2) Trichomonas vaginalis strain GT3, Giardia intestinalis isolate IMSS:0981:1, and Entamoeba histolytica strain HM1-IMSS were used. Trophozoites of G. intestinalis were maintained in a TYI-S-33 medium supplemented with 10% calf serum and bovine bile. E. histolytica and T. vaginalis trophozoites were maintained in TYI-S-33 medium supplemented with 10% bovine serum. Briefly, 5 × 10^4 trophozoites of G. intestinalis or T. vaginalis, or 6 × 10^3 trophozoites of E. histolytica were incubated for 48 h at 37 °C with different concentrations of the compound to be tested, each added as solutions in DMSO. As a negative control, parasite cultures received an equivalent amount of DMSO only, while albendazole and metronidazole were included as positive controls. At the end of the treatment period, the cells were washed and subcultured for another 48 h in a fresh medium to which no drug was added. […] Experiments were carried out in triplicate and repeated at least twice.

[2] = test system: Giardia intestinalis isolate IMSS:0981:1; assay: as above; format: cell-based; settings: for IC50: Giardia duodenalis, read-out: IC50 (µM) G. intestinalis
Description: as §1, §2

[3] = test system: Trichomonas vaginalis strain GT3; assay: as above; format: cell-based; settings: for IC50: Trichomonas vaginalis, read-out: IC50 (µM) T. vaginalis
Description: as §1, §2

[4] = test system: Escherichia coli strain EDL933 (EHEC); assay: Disk diffusion susceptibility test; format: cell-based; settings: for Inhibition (positive / none) E. coli 933: 5 mg per disc, 37 °C, 24 h; for zone of inhibition at 5000 µg/disc: Escherichia coli, read-out: Zone of inhibition at 5 mg per disc (mm) E. coli 933
[5] = test system: Escherichia coli strain 042 (EAEC); assay: Disk diffusion susceptibility test; format: cell-based; settings: 5 mg per disc, 37 °C, 24 h
[6] = test system: Salmonella enterica serovar Typhi; assay: Disk diffusion susceptibility test; format: cell-based
Candida albicans = assay: Disk diffusion susceptibility test; format: cell-based; settings: for Inhibition (positive / none) C. albicans: 5 mg per disc, 37 °C, 24 h
Candida glabrata = assay: Disk diffusion susceptibility test; format: cell-based; settings: for Inhibition (positive / none) C. glabrata: 5 mg per disc, 37 °C, 24 h; for zone of inhibition at 5000 µg/disc: Nakaseomyces glabratus, read-out: Zone of inhibition at 5 mg per disc (mm) C. glabrata
[7] = molecular target: T1, human recombinant cyclooxygenase-2 (Homo sapiens, UniProt P35354); assay: COX inhibitor screening assay (Cayman kit); format: biochemical; settings: tested at 10 µM
T1 construct: purchased Cayman Chemical 560131
T1 sequence (P35354 18-604): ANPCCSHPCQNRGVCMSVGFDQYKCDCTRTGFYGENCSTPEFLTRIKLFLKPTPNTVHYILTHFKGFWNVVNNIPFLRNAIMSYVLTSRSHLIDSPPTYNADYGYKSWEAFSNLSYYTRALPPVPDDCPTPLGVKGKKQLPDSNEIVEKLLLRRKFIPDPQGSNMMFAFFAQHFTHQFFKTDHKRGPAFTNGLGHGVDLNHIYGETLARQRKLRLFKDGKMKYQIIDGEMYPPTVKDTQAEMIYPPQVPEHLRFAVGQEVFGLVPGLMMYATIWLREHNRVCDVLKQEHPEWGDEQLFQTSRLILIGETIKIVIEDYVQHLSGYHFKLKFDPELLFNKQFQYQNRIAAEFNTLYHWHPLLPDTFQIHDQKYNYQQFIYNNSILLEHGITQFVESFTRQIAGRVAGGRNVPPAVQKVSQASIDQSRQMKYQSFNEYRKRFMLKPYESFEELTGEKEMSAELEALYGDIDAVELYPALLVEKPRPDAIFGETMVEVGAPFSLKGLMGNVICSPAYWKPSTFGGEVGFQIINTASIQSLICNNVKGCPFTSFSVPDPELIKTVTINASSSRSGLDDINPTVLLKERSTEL
Description: Additionally, molecular docking studies using AutoDock Vina software (TSRI, La Jolla, CA, USA) were performed to aid in the interpretation of the experimental results. […] Nevertheless, these compounds represent an interesting starting point towards the design of new antiparasitic compounds with an additional COX-2 inhibitory property.
Assays were carried out by duplicate following the instructions provided by the manufacturer.

[8] = trophozoites, 48 h with compound then 48 h subculture without drug
[9] = GT3, trophozoites, 48 h with compound then 48 h subculture without drug
[10] = 16 relative to 7, 20 compared to 13

Row | SMILES | melting point [°C] | IC50 [1, 8] [µM] | IC50 [2, 8] [µM] | IC50 [3, 9] [µM] | Inhibition (positive / none) E. coli 933 [4] | Inhibition (positive / none) E. coli 042 [5] | Inhibition (positive / none) S. Typhi ([6]; 5 mg per disc, 37 °C, 24 h) | Inhibition (positive / none) C. albicans (Candida albicans) | Inhibition (positive / none) C. glabrata (Candida glabrata) | other results
1 | CSc1ccc(-n2nc3ccccc3c2-c2ccccc2)cc1 [Compound 19, 2-(4-(Methylthio)phenyl)-3-phenyl-2H-indazole] | 87.7 to 89 |  |  |  |  |  |  |  |  | 
2 | C[S+]([O-])c1ccc(-n2cc3ccccc3n2)cc1 (centres unmarked) [Compound 14, 2-(4-(Methylsulfinyl)phenyl)-2H-indazole] | 150.1 to 152.7 | 0.0878 ± 0.0083 | 0.168 ± 0.011 | 0.312 ± 0.011 |  |  |  |  |  | 
3 | O=C(O)c1ccc(-n2nc3ccccc3c2-c2ccccc2)cc1 [Compound 20, 4-(3-Phenyl-2H-indazol-2-yl) benzoic acid] | 129.2 to 130.1 | 0.0445 ± 0.0045 | 0.0795 ± 0.0045 | 0.111 ± 0.018 | + | - | - | - | + | improvement in potency against E. histolytica relative to the analog [1]: two-fold; improvement in potency against G. intestinalis relative to the analog [2, 10]: two-fold; improvement in potency against T. vaginalis relative to the analog [3, 10]: three-fold; zone of inhibition at 5000 µg/disc [4]: 2 mm; zone of inhibition at 5000 µg/disc (Candida glabrata): 2 mm
4 | COC(=O)c1ccc(-n2cc3ccccc3n2)cc1 [Compound 10, Methyl 4-(2H-indazol-2-yl) benzoate] | 185.8 to 186.2 | 0.0218 ± 0.0028 | 0.0634 ± 0.0056 | 0.107 ± 0.0056 | - | - | - | - | - | 
5 | Clc1ccc(-n2cc3ccccc3n2)cc1 [Compound 8, 2-(4-Chlorophenyl)-2H-indazole] | 143 to 145.5 | 0.0415 ± 0.0031 | 0.0634 ± 0.0031 | 0.107 ± 0.0031 |  |  |  |  |  | 
6 | COc1ccc(-n2cc3ccccc3n2)cc1 [Compound 9, 2-(4-Methoxyphenyl)-2H-indazole] | 133.2 to 135.8 | 0.154 ± 0.0158 | 0.205 ± 0.0063 | 0.372 ± 0.0158 |  |  |  |  |  | 
7 | O=C(O)c1ccc(-n2cc3ccccc3n2)cc1 [Compound 13, 4-(2H-Indazol-2-yl) benzoic acid] | 288.3 to 288.5 | 0.0965 ± 0.0059 | 0.193 ± 0.0119 | 0.327 ± 0.0178 |  |  |  |  |  | 
8 | CS(=O)(=O)c1ccc(-n2cc3ccccc3n2)cc1 [Compound 15, 2-(4-(Methylsulfonyl)phenyl)-2H-indazole] | 200.6 to 201.5 | 0.136 ± 0.0052 | 0.09 ± 0.0234 | 0.145 ± 0.0026 | - | - | - | - | - | 
9 | CC1(C)S[C@@H]2[C@H](NC(=O)[C@H](N)c3ccccc3)C(=O)N2[C@H]1C(=O)O [Ampicillin, ampicillin, reference compound] |  |  |  |  |  |  |  |  |  | Inhibition (positive / none) S. Typhi ([6]; positive control, ampicillin 25 µg): +
10 | O=C(O)c1ccc(-c2c3ccccc3nn2-c2ccccc2)cc1 [Compound 25, 4-(2-Phenyl-2H-indazol-3-yl) benzoic acid] | 296.2 to 298.2 | 0.0509 | 0.121 ± 0.009 | 0.24 ± 0.0067 | + | - | - | + | - | zone of inhibition at 5000 µg/disc [4]: 2 mm; zone of inhibition at 5000 µg/disc (Candida albicans; Candida albicans, read-out: Zone of inhibition at 5 mg per disc (mm) C. albicans): 1 mm
11 | Oc1ccc(-n2cc3ccccc3n2)cc1 [Compound 12, 4-(2H-Indazol-2-yl) phenol] | 179 to 181 | 0.0737 ± 0.0101 | 0.119 ± 0.0067 | 0.157 ± 0.0135 |  |  |  |  |  | 
12 | CCCSc1ccc2nc(NC(=O)OC)[nH]c2c1 [ABZ, albendazole, reference compound] |  |  |  |  |  |  |  |  |  | IC50 ([1]; 48 h): 56.5 ± 18.8 µM; IC50 ([2]; 48 h): 0.037 ± 0.003 µM; IC50 ([3]; GT3, 48 h): 1.591 ± 0.0113 µM
13 | Cc1ncc([N+](=O)[O-])n1CCO [MTZ, Metronidazole, reference compound] |  | 0.38 ± 0.146 | 1.23 ± 0.125 | 0.236 ± 0.016 |  |  |  |  |  | 
14 | Clc1ccc(-n2nc3ccccc3c2-c2ccccc2)cc1 [Compound 17, 2-(4-Chlorophenyl)-3-phenyl-2H-indazole] | 124.4 to 125 | 0.0213 ± 0.0023 | 0.0607 ± 0.0023 | 0.103 ± 0.0023 | + | - | - | - | - | improvement in potency against E. histolytica relative to the analog [1]: two-fold; zone of inhibition at 5000 µg/disc [4]: 2 mm
15 | c1ccc(-n2cc3ccccc3n2)cc1 [Compound 7, 2-Phenyl-2H-indazole] | 81.2 to 81.6 | 0.0798 ± 0.0036 | 0.113 ± 0.0218 | 0.118 ± 0.0218 | - | - | + | - | - | zone of inhibition at 5000 µg/disc ([6]; Salmonella enterica, TYPHI, read-out: Zone of inhibition at 5 mg per disc (mm) S. Typhi): 9 mm; % of Inhibition of COX-2 [7]: Inactive
16 | CSc1ccc(-n2cc3ccccc3n2)cc1 [Compound 11, 2-(4-(Methylthio)phenyl)-2H-indazole] | 148.3 to 149.7 | 0.0978 ± 0.0147 | 0.218 ± 0.0088 | 0.273 ± 0.0147 |  |  |  |  |  | 
17 | CSc1ccc(-c2c3ccccc3nn2-c2ccccc2)cc1 [Compound 24, 3-(4-(Methylthio)phenyl)-2-phenyl-2H-indazole] | 119.3 to 121.4 |  |  |  |  |  |  |  |  | 
18 | CS(=O)(=O)c1ccc(-n2nc3ccccc3c2-c2ccccc2)cc1 [Compound 21, 2-(4-(Methylsulfonyl)phenyl)-3-phenyl-2H-indazole] | 101.8 to 102.7 | 0.208 ± 0.0061 | 0.124 ± 0.0122 | 0.214 ± 0.0101 | - | - | - | - | - | inhibition at 10 µM [7]: 44.5 ± 2.65%
19 | Clc1ccc(-c2c3ccccc3nn2-c2ccccc2)cc1 [Compound 22, 3-(4-Chlorophenyl)-2-phenyl-2H-indazole] | 141.1 to 142.8 | 0.0394 | 0.113 ± 0.007 | 0.118 ± 0.0046 | + | - | - | - | + | zone of inhibition at 5000 µg/disc [4]: 1 mm; zone of inhibition at 5000 µg/disc (Candida glabrata): 2 mm
